Source: patent US20240245694A1, “Tricyclic Compounds and their Uses” (Novartis AG, priority 2022, published 2024)

Legend:
DLD1-WRN-KO cells = assay: Proliferation assay DLD1-WRN-KO (CellTiterGlo, 96 hours), off-target effects; format: cell-based; details: Homo sapiens
Excerpt: (§1) The colon carcinoma cell lines SW48 (RRID: CVCL_1724), HCT 116 (RRID: CVCL_0291) and SNU-407 (RRID: CVCL_5058) were obtained from ATCC. The WRN-knockdown insensitive colon carcinoma cell line DLD-1 (RRID: CVCL_0248) was obtained from the Korean Cell Line Bank (KCLB), and used to generate a derivative in which the endogenous WRN gene copies were knocked out by CRISPR-mediated editing using standard CRISPR methods. The resulting cell line, DLD1-WRN-KO, was used to assess potential off-target compound effects.
(§2) SW48, SNU-407 and DLD1-WRN-KO cells were cultured in growth medium composed of RPMI-1640 (Amimed Cat #1-41F22-1), 2 mM L-Glutamine (Amimed Cat #5-10K50), 10 mM HEPES (Gibco Cat #15630-056), 1 mM sodium pyruvate (Amimed Cat #5-60F00-H), 1× Penicillin-Streptomycin (Amimed Cat #4-01F00-H) and 10% fetal calf serum (Amimed Cat #2-01F30-G, Lot #LB11566P). HCT 116 cells were cultured in growth medium composed of McCoys 5A (Amimed catalog #1-18F01-1), 2 mM L-Glutamine (Amimed Cat #5-10K50), 1× Penicillin-Streptomycin (Amimed Cat #4-01F00-H) and 10% fetal calf serum (Amimed Cat #2-01F30-G, Lot #LB11566P). All cells were maintained at 37° C. in a humidified 5% CO2 incubator.
(§3) Following filtration through a Steriflip-NY 20 μm filter (Millipore Cat #SCNY00020), trypsinized cells were seeded in 100 microliters growth medium at 2′000 (SW48) or 1′500 (SNU-407, DLD1-WRN-KO, HCT 116) cells/well into white, clear-bottom 96-well plates (Costar Cat #3903). Three replicate plates were prepared for each compound treatment condition. In addition, one plate (termed “day 0”) was prepared to quantify the number of viable cells at the time of compound addition. Following overnight incubation at 37° C. in a humidified 5% CO2 atmosphere, eight 3-fold serial dilutions of a given compound stock (obtained at a concentration of 10 mM in DMSO and stored at 4° C.) were dispensed directly into each of the triplicate assay plates using a HP 300D non-contact Digital Dispenser (TECAN). The final concentration of DMSO was normalized to 0.1% in all wells. 96 hours after compound addition, cellular ATP levels as a surrogate for cell viability was assessed following addition of 50 microliters CellTiterGlo (Promega Cat #G7573) reagent and luminescence quantification on a MPLEX multi-mode plate-reader (TECAN) following a 10 minute incubation at room temperature. The number of viable cells in the “day 0” plate were quantified identically on the day of compound addition.
(§4) For data analysis, the assay background signal that was determined in wells containing medium, but no cells, was subtracted from all other data points prior to further calculations. The extent of growth inhibition and potential cell kill was assessed by comparing the ATP levels (measured using CellTiterGlo, Promega) in compound-treated cells with those present at the time of compound addition. To this end, the following conditional concept was programmatically applied in HELIOS, an in-house software applying a multi-step decision tree to arrive at optimal concentration response curve fits (Gubler et al, SLAS DOI: 10.1177/2472555217752140) to calculate % growth (% G) for each compound-treated well: % G=(T−V0)/V0))*100 when T<V0, and % G=(T−V0)/(V−V0)))*100 when T>V0, where V0 is the viability level at time of compound addition, while V and T represent vehicle-control and compound-treated viability levels, respectively, at the end of the compound incubation. 100%, 0% and −100% signify absence of growth inhibition, growth stasis, and complete cell kill, respectively. Compound concentrations leading to half-maximal growth inhibition (G150) and residual cell viability at the highest tested compound concentration (Data (cmax), expressed in percent) were routinely calculated. Data analysis can also be carried out using commercially available software designed to derive IC50 values using 4-parameter fits (e.g. GraphPad Prism, XL fit). […]

[1] = biological target: WRN helicase (core helicase motif aa N517-P1238) (Homo sapiens (Human), UniProt Q14191); assay: WRN ATPase assay (ADP-Glo), DNA dependent ATP hydrolysis; format: biochemical; details: 3 hours pre-incubation, 300 micromolar ATP, FLAP26 ssDNA; geometric means of at least 2 determinations
Excerpt: An ATPase assay was set up to measure the DNA dependent ATP hydrolysis activity of WRN helicase. This assay was used also to assess the inhibition properties of compounds of the invention on DNA dependent WRN ATPase activity.
The core helicase motif of the WRN protein (aa N517-P1238) was produced for this assay (protein production as described above). A 45 oligonucleotide sequence called “FLAP26” as described by Brosh et al., 2009, DOI: 10.1074/jbc.M111446200 ([…]; SEQ ID NO: 2) was purchased from IDT (Integrated DNA Technologies, Leuven, Belgium) and used as single strand DNA substrate. The ADP-Glo assay kit (Promega, Madison, WI) allowing the quantification of ADP produced in ATP hydrolysis reactions was used for setting up this assay. Time course experiments were first performed in order to determine the best enzymatic assay conditions (including buffer conditions, reaction time and concentrations of protein, ATP and DNA substrates). A typical reaction consists of 10 nM WRN protein, 0.2 nM FLAP26, and 300 micromolar ATP in the following assay buffer: 30 mM Tris pH7.5, 2 mM MgCl2, 0.02% BSA, 50 mM NaCl, 0.1% pluronic F127 prepared in DNAse free water.
To evaluate the inhibition properties of compounds of the invention, serial dilutions were prepared in DMSO (10 half log dilutions from a 10 mM DMSO solution). 50 nanoliters of each concentration was pre-incubated for 3 hours in a 384 small volume assay plate (Greiner #784075) with 2.5 microliters of a 20 nM WRN helicase protein in assay buffer with 600 micromolar ATP. Control wells were included with a “high control” (no inhibition), containing DMSO with no test compound, and “low controls” (maximal inhibition), containing buffer without protein. The reaction was started by addition of 2.5 microliters of FLAP26 at 0.4 nM and incubated for 30 minutes at room temperature. The reaction was stopped with the addition of 5 microliters of the first ADP-Glo reagent and incubated for one hour to remove the excess amount of ATP. Afterwards, 10 microliters of ATP detection reagent was added and incubated for an additional hour before reading. Luminescence output was recorded using Tecan 1000 reader, with 5 minutes delay before reading. Each concentration of compound was tested in duplicates in the assay plate.
Data analysis was carried out using an in-house developed software (Novartis Helios software application, Novartis Institutes for BioMedical Research, unpublished) using the methods described by Formenko et al., 2006, DOI: 10.1016/j.cmpb.2006.01.008. Following normalization of activity values for the wells to % inhibition (% inhibition=[(high control-sample)/(high control-low control)]×100), IC50 fitting was carried out from the duplicate determinations present on each plate according to [4]. Data analysis can also be carried out using commercially available software designed to derive IC50 values using 4-parameter fits (e.g. GraphPad Prism, XL fit). The reported IC50 values are the geometrical means of at least 2 independent replicates.

SW48 cells = assay: Proliferation assay SW48 (CellTiterGlo, 96 hours); format: cell-based; details: Homo sapiens
Excerpt: as §1, §2, §3, §4

Sequence of WRN helicase (core helicase motif aa N517-P1238) (Q14191 517-1238): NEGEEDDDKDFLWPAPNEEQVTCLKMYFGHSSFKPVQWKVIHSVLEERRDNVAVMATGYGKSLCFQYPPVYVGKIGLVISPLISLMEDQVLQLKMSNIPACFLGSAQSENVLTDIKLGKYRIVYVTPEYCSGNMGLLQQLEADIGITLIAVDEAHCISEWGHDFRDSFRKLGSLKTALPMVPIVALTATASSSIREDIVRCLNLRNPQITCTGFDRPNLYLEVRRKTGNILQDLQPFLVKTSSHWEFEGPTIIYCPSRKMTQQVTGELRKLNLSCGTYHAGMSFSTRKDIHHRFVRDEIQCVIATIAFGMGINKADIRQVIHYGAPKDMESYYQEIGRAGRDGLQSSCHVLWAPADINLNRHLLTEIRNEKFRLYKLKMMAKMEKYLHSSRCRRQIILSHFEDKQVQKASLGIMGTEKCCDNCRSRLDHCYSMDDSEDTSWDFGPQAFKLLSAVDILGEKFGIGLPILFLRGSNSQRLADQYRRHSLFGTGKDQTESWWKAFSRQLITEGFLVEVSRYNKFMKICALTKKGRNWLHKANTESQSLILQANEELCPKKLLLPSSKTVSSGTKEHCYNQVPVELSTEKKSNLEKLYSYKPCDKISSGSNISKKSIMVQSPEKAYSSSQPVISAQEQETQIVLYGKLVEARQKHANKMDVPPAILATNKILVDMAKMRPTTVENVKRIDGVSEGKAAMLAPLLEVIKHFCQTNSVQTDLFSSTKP

SMILES	GI50 (DLD1-WRN-KO cells)	IC50 [1]	GI50 (SW48 cells)
C[C@H]1C[C@@H](C(=O)Nc2ccc(C(F)(F)F)cc2Cl)n2c1c(N1CCN(C(=O)c3nccc(Cl)c3O)CC1)c(=O)n1nc(N3CCOCC3)nc21 [Example 1B, (7S,9S)-6-(4-(4-chloro-3-hydroxypicolinoyl)piperazin-1-yl)-N-(2-chloro-4-(trifluoromethyl)phenyl)-7-methyl-2-morpholino-5-oxo-5,7,8,9-tetrahydropyrrolo[1,2-c][1,2,4]triazolo[1,5-a]pyrimidine-9-carboxamide]	> 10 µM	7 µM	9 µM
C[C@@H]1C[C@@H](C(=O)Nc2ccc(C(F)(F)F)cc2Cl)n2c1c(N1CCN(C(=O)c3nccc(Cl)c3O)CC1)c(=O)n1nc(N3CCOCC3)nc21 [Example 1D, (7R,9S)-6-(4-(4-chloro-3-hydroxypicolinoyl)piperazin-1-yl)-N-(2-chloro-4-(trifluoromethyl)phenyl)-7-methyl-2-morpholino-5-oxo-5,7,8,9-tetrahydropyrrolo[1,2-c][1,2,4]triazolo[1,5-a]pyrimidine-9-carboxamide]	> 10 µM	3 µM	5 µM
Cc1cc(C(F)(F)F)ccc1NC(=O)[C@@H]1CCc2c(N3CCN(C(=O)c4nccc(Cl)c4O)CC3)c(=O)n3nc(C4=CCOCC4)nc3n21 [Example 19B, (S)-6-(4-(4-chloro-3-hydroxypicolinoyl)piperazin-1-yl)-2-(3,6-dihydro-2H-pyran-4-yl)-N-(2-methyl-4-(trifluoromethyl)phenyl)-5-oxo-5,7,8,9-tetrahydropyrrolo[1,2-c][1,2,4]triazolo[1,5-a]pyrimidine-9-carboxamide]	–	44 µM	–
CC(=O)N1CCN(c2c3n(c4nc(-c5ccccc5)nn4c2=O)[C@H](C(=O)Nc2ccc(C(F)(F)F)cc2)CC3)CC1 [Example 22B, (S)-6-(4-acetylpiperazin-1-yl)-5-oxo-2-phenyl-N-(4-(trifluoromethyl)phenyl)-5,7,8,9-tetrahydropyrrolo[1,2-c][1,2,4]triazolo[1,5-a]pyrimidine-9-carboxamide]	–	> 100 µM	–
Cc1ncnc(C(=O)N2CCN(c3c4n(c5nc(C6=CC(=O)OCC6)nn5c3=O)[C@@H](C(=O)Nc3ccc(C(F)(F)F)cc3Cl)C[C@H]4C)[C@H]3CC[C@@H]32)c1O [Example 25, (7R,9R)—N-(2-chloro-4-(trifluoromethyl)phenyl)-6-((1S,6S)-5-(5-hydroxy-6-methylpyrimidine-4-carbonyl)-2,5-diazabicyclo[4.2.0]octan-2-yl)-7-methyl-5-oxo-2-(6-oxo-3,6-dihydro-2H-pyran-4-yl)-5,7,8,9-tetrahydropyrrolo[1,2-c][1,2,4]triazolo[1,5-a]pyrimidine-9-carboxamide]	> 10 µM	–	0.01 µM

The remaining lines, values ahead:

GI50 (DLD1-WRN-KO cells)	IC50 [1]	GI50 (SW48 cells)	SMILES
> 10 µM	0.7 µM	6 µM	CC(=O)N1CCN(c2c3n(c4nc(-c5ccccc5)nn4c2=O)C(C(=O)Nc2ccc(C(F)(F)F)cc2)CC3)CC1 (racemic) [Example 22, rac-6-(4-acetylpiperazin-1-yl)-5-oxo-2-phenyl-N-(4-(trifluoromethyl)phenyl)-5,7,8,9-tetrahydropyrrolo[1,2-c][1,2,4]triazolo[1,5-a]pyrimidine-9-carboxamide]
> 10 µM	2 µM	4 µM	CC(=O)N1CCN(c2c3n(c4nc(C5=CCOCC5)nn4c2=O)C(C(=O)Nc2ccc(C(F)(F)F)cc2)CC3)CC1 (racemic) [Example 24, rac-6-(4-acetylpiperazin-1-yl)-2-(3,6-dihydro-2H-pyran-4-yl)-5-oxo-N-(4-(trifluoromethyl)phenyl)-5,7,8,9-tetrahydropyrrolo[1,2-c][1,2,4]triazolo[1,5-a]pyrimidine-9-carboxamide]
> 10 µM	0.02 µM	0.04 µM	C[C@@H]1C[C@H](C(=O)Nc2ccc(C(F)(F)F)cc2Cl)n2c1c(N1CCN(C(=O)c3nccc(Cl)c3O)CC1)c(=O)n1nc(N3CCOCC3)nc21 [Example 1A, (7R,9R)-6-(4-(4-chloro-3-hydroxypicolinoyl)piperazin-1-yl)-N-(2-chloro-4-(trifluoromethyl)phenyl)-7-methyl-2-morpholino-5-oxo-5,7,8,9-tetrahydropyrrolo[1,2-c][1,2,4]triazolo[1,5-a]pyrimidine-9-carboxamide]
> 10 µM	0.04 µM	0.5 µM	C[C@H]1C[C@H](C(=O)Nc2ccc(C(F)(F)F)cc2Cl)n2c1c(N1CCN(C(=O)c3nccc(Cl)c3O)CC1)c(=O)n1nc(N3CCOCC3)nc21 [Example 1C, (7S,9R)-6-(4-(4-chloro-3-hydroxypicolinoyl)piperazin-1-yl)-N-(2-chloro-4-(trifluoromethyl)phenyl)-7-methyl-2-morpholino-5-oxo-5,7,8,9-tetrahydropyrrolo[1,2-c][1,2,4]triazolo[1,5-a]pyrimidine-9-carboxamide]
> 10 µM	0.02 µM	0.04 µM	Cc1ncnc(C(=O)N2CCN(c3c4n(c5nc(N6CCOCC6)nn5c3=O)[C@@H](C(=O)Nc3ccc(C(F)(F)F)cc3Cl)C[C@H]4C)CC2)c1O [Example 2A, (7R,9R)—N-(2-chloro-4-(trifluoromethyl)phenyl)-6-(4-(5-hydroxy-6-methylpyrimidine-4-carbonyl)piperazin-1-yl)-7-methyl-2-morpholino-5-oxo-5,7,8,9-tetrahydropyrrolo[1,2-c][1,2,4]triazolo[1,5-a]pyrimidine-9-carboxamide]
